Here are results for 36 molecules from patent US7846941B2, “Compounds modulating c-kit and c-fms activity and uses therefor” (Plexxikon, Inc., priority 2005, dated 2010).

Structures are written as SMILES.

The first test deals with c-kit (Homo sapiens, UniProt P10721). The test can be described thus: c-kit assays of Examples 40 and 41 (AlphaScreen and 33P kinase assays, M-07e proliferation and phosphorylation).
Chain of c-kit (P10721 with tags, fused parts or gaps): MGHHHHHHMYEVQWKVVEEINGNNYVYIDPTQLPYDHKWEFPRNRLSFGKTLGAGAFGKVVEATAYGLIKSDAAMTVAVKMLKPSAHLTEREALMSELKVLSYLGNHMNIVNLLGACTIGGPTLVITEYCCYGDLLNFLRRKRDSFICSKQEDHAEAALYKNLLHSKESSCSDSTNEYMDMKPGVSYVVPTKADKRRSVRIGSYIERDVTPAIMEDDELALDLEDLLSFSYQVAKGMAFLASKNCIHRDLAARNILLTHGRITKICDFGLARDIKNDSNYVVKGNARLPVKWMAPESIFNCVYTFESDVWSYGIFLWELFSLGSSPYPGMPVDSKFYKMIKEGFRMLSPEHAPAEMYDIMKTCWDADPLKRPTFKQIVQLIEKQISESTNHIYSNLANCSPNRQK
Conditions: not given
As to `CC(C)Nc1ccc(C(=O)c2c[nH]c3ncccc23)cn1` [Compound P-0024, (6-Isopropylamino-pyridin-3-yl)-(1H-pyrrolo[2,3-b]pyridin-3-yl)-methanone], the IC50 is less than 1000 nM.
For `CC(C)(C)Oc1ccc(Cc2c[nH]c3ncccc23)cn1` [Compound P-0020, 3-(6-tert-Butoxy-pyridin-3-ylmethyl)-1H-pyrrolo[2,3-b]pyridine], the half-inhibitory concentration (IC50) is less than 1000 nM.
Still for that read-out and setting: for `COc1nc(NCc2ccc(C(F)(F)F)cc2)ccc1Cc1c[nH]c2ncccc12` [Compound P-0012, [6-Methoxy-5-(1H-pyrrolo[2,3-b]pyridin-3-ylmethyl)-pyridin-2-yl]-(4-trifluoromethyl-benzyl)-amine] the value was less than 1000 nM.
Same read-out and setting: for `FC(F)(F)c1ccc(CNc2ccc(Cc3c[nH]c4ncc(OCCN5CCCC5)cc34)cn2)cc1` [Compound P-0064, {5-[5-(2-Pyrrolidin-1-yl-ethoxy)-1H-pyrrolo[2,3-b]pyridin-3-ylmethyl]-pyridin-2-yl}-(4-trifluoromethyl-benzyl)-amine] the value was less than 1000 nM; for `O=C(Nc1ccc(Cc2c[nH]c3ncccc23)cn1)c1ccc(Cl)cc1` [Compound P-0074, 4-Chloro-N-[5-(1H-pyrrolo[2,3-b]pyridin-3-ylmethyl)-pyridin-2-yl]-benzamide], less than 1000 nM.
Regarding `Oc1cnc2[nH]cc(Cc3ccc(NCc4ccc(Cl)cc4)nc3)c2c1` [Compound P-0062, 3-[6-(4-Chloro-benzylamino)-pyridin-3-ylmethyl]-1H-pyrrolo[2,3-b]pyridin-5-ol], the IC50 was less than 1000 nM.
Same read-out and setting: for `CCN(CC)CCCOc1cnc2[nH]cc(Cc3ccc(NCc4ccc(C(F)(F)F)cc4)nc3)c2c1` [Compound P-0066, {5-[5-(3-Diethylamino-propoxy)-1H-pyrrolo[2,3-b]pyridin-3-ylmethyl]-pyridin-2-yl}-(4-trifluoromethyl-benzyl)-amine] the value was less than 1000 nM.
Turning to `O=C(Nc1ccc(Cc2c[nH]c3ncccc23)cn1)c1ccc(F)cc1` [Compound P-0073, 4-Fluoro-N-[5-(1H-pyrrolo[2,3-b]pyridin-3-ylmethyl)-pyridin-2-yl]-benzamide], the IC50 was less than 1000 nM.
The same measure, in the same setting: for `c1cnc2[nH]cc(Cc3ccc(NCC4CCCCC4)nc3)c2c1` [Compound P-0033, Cyclohexylmethyl-[5-(1H-pyrrolo[2,3-b]pyridin-3-ylmethyl)-pyridin-2-yl]-amine] the value was less than 1000 nM.
As for `C[C@H](Nc1ccc(Cc2c[nH]c3ncccc23)cn1)c1ccc(Cl)cc1` [Compound P-0075, [(S)-1-(4-Chloro-phenyl)-ethyl]-[5-(1H-pyrrolo[2,3-b]pyridin-3-ylmethyl)-pyridin-2-yl]-amine], the IC50 was less than 1000 nM.
On the same count and under the same terms, under `CCN(CC)CCCOc1cnc2[nH]cc(Cc3ccc(NCc4ccc(Cl)cc4)nc3)c2c1` [Compound P-0069, (4-Chloro-benzyl)-{5-[5-(3-diethylamino-propoxy)-1H-pyrrolo[2,3-b]pyridin-3-ylmethyl]-pyridin-2-yl}-amine] stands less than 1000 nM; under `O=S(=O)(Nc1ccc(Cc2c[nH]c3ncccc23)cn1)c1ccc(C(F)(F)F)cc1` [Compound P-0071, N-[5-(1H-Pyrrolo[2,3-b]pyridin-3-ylmethyl)-pyridin-2-yl]-4-trifluoromethyl-benzenesulfonamide], less than 1000 nM.
In turn, `O=C(c1ccc(NCC2CCCCC2)nc1)c1c[nH]c2ncccc12` [Compound P-0031, [6-(Cyclohexylmethyl-amino)-pyridin-3-yl]-(1H-pyrrolo[2,3-b]pyridin-3-yl)-methanone] registered a half-maximal inhibitory concentration (IC50) of less than 1000 nM.
The same measure, in the same setting: under `O=C(c1ccc(Nc2cccc(OCc3ccccc3)c2)nc1)c1c[nH]c2ncccc12` [Compound P-0026, [6-(3-Benzyloxy-phenylamino)-pyridin-3-yl]-(1H-pyrrolo[2,3-b]pyridin-3-yl)-methanone] stands less than 1000 nM; under `CCN(CC)CCOc1cnc2[nH]cc(Cc3ccc(NCc4ccc(C(F)(F)F)cc4)nc3)c2c1` [Compound P-0060, {5-[5-(2-Diethylamino-ethoxy)-1H-pyrrolo[2,3-b]pyridin-3-ylmethyl]-pyridin-2-yl}-(4-trifluoromethyl-benzyl)-amine], less than 1000 nM.
Still for that read-out and setting: for `c1cnc2[nH]cc(Cc3ccc(NCC4CC4)nc3)c2c1` [Compound P-0032, Cyclopropylmethyl-[5-(1H-pyrrolo[2,3-b]pyridin-3-ylmethyl)-pyridin-2-yl]-amine] the value was less than 1000 nM; for `O=C(c1ccc(NCc2cccc(F)c2)nc1)c1c[nH]c2ncccc12` [Compound P-0016, [6-(3-Fluoro-benzylamino)-pyridin-3-yl]-(1H-pyrrolo[2,3-b]pyridin-3-yl)-methanone], less than 1000 nM; for `Clc1ccc(COc2ccc(Cc3c[nH]c4ncccc34)cn2)cc1` [Compound P-0056, 3-[6-(4-Chloro-benzyloxy)-pyridin-3-ylmethyl]-1H-pyrrolo[2,3-b]pyridine], less than 1000 nM.
`FC(F)(F)c1cccc(COc2ccc(Cc3c[nH]c4ncccc34)cn2)c1` [Compound P-0057, 3-[6-(3-Trifluoromethyl-benzyloxy)-pyridin-3-ylmethyl]-1H-pyrrolo[2,3-b]pyridine] returned an IC50 of less than 1000 nM.
`CC(C)CNc1ccc(Cc2c[nH]c3ncccc23)cn1` [Compound P-0028, Isobutyl-[5-(1H-pyrrolo[2,3-b]pyridin-3-ylmethyl)-pyridin-2-yl]-amine] gave an IC50 of less than 1000 nM.
Same read-out and setting: for `Clc1ccc(NCc2ccc(Cc3c[nH]c4ncccc34)cn2)cc1` [Compound P-0078, (4-Chloro-phenyl)-[5-(1H-pyrrolo[2,3-b]pyridin-3-ylmethyl)-pyridin-2-ylmethyl]-amine] the value was less than 1000 nM; for `Oc1cnc2[nH]cc(Cc3ccc(NCc4ccc(C(F)(F)F)cc4)nc3)c2c1` [Compound P-0061, 3-[6-(4-Trifluoromethyl-benzylamino)-pyridin-3-ylmethyl]-1H-pyrrolo[2,3-b]pyridin-5-ol], less than 1000 nM; for `O=C(c1ccc(NCC2CC2)nc1)c1c[nH]c2ncccc12` [Compound P-0030, [6-(Cyclopropylmethyl-amino)-pyridin-3-yl]-(1H-pyrrolo[2,3-b]pyridin-3-yl)-methanone], less than 1000 nM.
For the molecule `FC(F)(F)c1ccc(CNc2ccc(Cc3c[nH]c4ncc(Cl)cc34)cn2)cc1` [Compound P-0054, [5-(5-Chloro-1H-pyrrolo[2,3-b]pyridin-3-ylmethyl)-pyridin-2-yl]-(4-trifluoromethyl-benzyl)-amine], the half-maximal inhibitory concentration (IC50) is less than 1000 nM.
For the molecule `COc1cnc2[nH]cc(Cc3ccc(NCc4ccc(C(F)(F)F)cc4)nc3)c2c1` [Compound P-0053, [5-(5-Methoxy-1H-pyrrolo[2,3-b]pyridin-3-ylmethyl)-pyridin-2-yl]-(4-trifluoromethyl-benzyl)-amine], the IC50 is less than 1000 nM.
Same read-out and setting: for `Clc1ccc(CNc2ccc(Cc3c[nH]c4nccc(Cl)c34)cn2)cc1` [Compound P-0009, [5-(4-chloro-1H-pyrrolo[2,3-b]pyridin-3-ylmethyl)-pyridin-2-yl]-(4-chloro-benzyl)-amine] the value was less than 1000 nM; for `O=C(Nc1ccc(Cc2c[nH]c3ncccc23)cn1)c1ccc(C(F)(F)F)cc1` [Compound P-0072, N-[5-(1H-Pyrrolo[2,3-b]pyridin-3-ylmethyl)-pyridin-2-yl]-4-trifluoromethyl-benzamide], less than 1000 nM.
As to `FC(F)(F)c1ccc(CNc2ccc(Cc3c[nH]c4ncccc34)cn2)cc1` [Compound P-0003, [5-(1H-Pyrrolo[2,3-b]pyridin-3-ylmethyl)-pyridin-2-yl]-(4-trifluoromethyl-benzyl)-amine], the IC50 was less than 1000 nM.
On the same count and under the same terms, for `CC(C)CNc1ccc(C(=O)c2c[nH]c3ncccc23)cn1` [Compound P-0025, (6-Isobutylamino-pyridin-3-yl)-(1H-pyrrolo[2,3-b]pyridin-3-yl)-methanone] the value was less than 1000 nM; for `Clc1ccc(CNc2ccc(Cc3c[nH]c4ncc(OCCN5CCOCC5)cc34)cn2)cc1` [Compound P-0063, (4-Chloro-benzyl)-{5-[5-(2-morpholin-4-yl-ethoxy)-1H-pyrrolo[2,3-b]pyridin-3-ylmethyl]-pyridin-2-yl}-amine], less than 1000 nM; for `Clc1ccc(CNc2ccc(Cc3c[nH]c4ncc(Cl)cc34)cn2)cc1` [Compound P-0059, (4-Chloro-benzyl)-[5-(5-chloro-1H-pyrrolo[2,3-b]pyridin-3-ylmethyl)-pyridin-2-yl]-amine], less than 1000 nM.
Molecule `COc1cnc2[nH]cc(Cc3ccc(NCc4ccc(Cl)cc4)nc3)c2c1` [Compound P-0058, (4-Chloro-benzyl)-[5-(5-methoxy-1H-pyrrolo[2,3-b]pyridin-3-ylmethyl)-pyridin-2-yl]-amine] gave an IC50 of less than 1000 nM.
`Clc1cccc(COc2ccc(Cc3c[nH]c4ncccc34)cn2)c1` [Compound P-0055, 3-[6-(3-Chloro-benzyloxy)-pyridin-3-ylmethyl]-1H-pyrrolo[2,3-b]pyridine]: the IC50 is less than 1000 nM.
Molecule `Fc1nc(NCc2ccc(Cl)cc2)ccc1Cc1c[nH]c2ncccc12` [Compound P-0082, (4-Chloro-benzyl)-[6-fluoro-5-(1H-pyrrolo[2,3-b]pyridin-3-ylmethyl)-pyridin-2-yl]-amine] registered an IC50 of less than 1000 nM.
On the same count and under the same terms, for `FC(F)(F)c1ccc(CNc2ccc(Cc3c[nH]c4ncc(OCCN5CCOCC5)cc34)cn2)cc1` [Compound P-0065, {5-[5-(2-Morpholin-4-yl-ethoxy)-1H-pyrrolo[2,3-b]pyridin-3-ylmethyl]-pyridin-2-yl}-(4-trifluoromethyl-benzyl)-amine] the value was less than 1000 nM.

For a further test, the system named is cells with activating c-kit mutations.
Experiment: not given
As to conditions: mutations in the catalytic region of c-kit; cited from earlier work.
`Cc1ccc(NC(=O)c2ccc(CN3CCN(C)CC3)cc2)cc1Nc1nccc(-c2cccnc2)n1` [STI571]: the “inhibition of cells with c-kit mutations” value is reported as “did not inhibit”.
